The values that follow come from the NIST ThermoML archive (doi:10.1016/j.fluid.2013.05.013).

The conditions of this data set: 101.33 kPa, Liquid; for viscosity: Concentric cylinders viscometry; for mass density: Vibrating tube method.

± gives the expanded uncertainty stated by the source.

For orientation: viscosity means the internal friction of a fluid under shear. For orientation: mass density means the mass of a sample divided by its volume.

`CCn1cc[n+](C)c1.O=S(=O)([N-]S(=O)(=O)C(F)(F)F)C(F)(F)F`: the viscosity came to 47.97 ± 0.29 mPa·s (288.15 K), 32.51 ± 0.2 mPa·s (298.15 K), 23.34 ± 0.14 mPa·s (308.15 K) and 17.46 ± 0.11 mPa·s (318.15 K). The mass density reads like this: (288.15 K) 1528.51 ± 0.7 kg/m3; (298.15 K) 1518.38 ± 0.69 kg/m3; (308.15 K) 1508.33 ± 0.68 kg/m3; (318.15 K) 1498.36 ± 0.67 kg/m3.
Regarding `CCn1cc[n+](C)c1.O=S(=O)([O-])C(F)(F)F` [1-ethyl-3-methylimidazolium trifluoromethanesulfonate], the viscosity reads like this: (288.15 K) 67.66 ± 0.45 mPa·s; (298.15 K) 45.12 ± 0.28 mPa·s; (308.15 K) 31.89 ± 0.2 mPa·s; (318.15 K) 23.4 ± 0.14 mPa·s. Also, the mass density (288.15 K) is on record as 1392.47 ± 0.57 kg/m3, the mass density (298.15 K) came out at 1384.05 ± 0.56 kg/m3, the mass density (308.15 K) came out at 1375.68 ± 0.56 kg/m3 and the mass density (318.15 K) was found to be 1367.37 ± 0.55 kg/m3.
